Experimental data reported in patent publication US10344026B2, “Compositions and methods of targeting mutant K-ras” (NANTBIO, INC., priority 2017, dated 2019).

Assays:
Type in all cases: cell-based
[1] = test system: phospho-ERK in A375 (Wild-type); experiment: In-Cell Western phospho-ERK, A375; settings: Homo sapiens, A-375, 1 h; A375, one hour treatment; read-out: In-Cell Western A375 (Wild-type) Erk (P)
Protocol: (§1) In-cell phosphorylation assays for Erk and Akt were performed on several of the compounds and exemplary results are shown in Table 3 below using HCC827 and A375 cell lines for wild type K-Ras and Panc1 and Panc10.05 cell lines for G12D K-Ras mutants. Results are expressed in μM and corresponding structures are shown in FIGS. 2A-2G and Examples 1-152, above.
(§2) Cells are seeded in complete medium into black sided, clear-bottom 384-well microplates at 3000 cells/[…]/well. Plates are returned to 37° C. CO2 incubator for 18 hr. Drug is made as 200× in DMSO and diluted into medium to 10×. To each well is added 4 ul 10× test article or controls, and plates are returned to the incubator. Final assay DMSO concentration is 0.5%. After one hour, cells are fixed in formaldehyde, rinsed & permeabilized with triton X-100, and blocked with BSA/Goat serum blocking solution. Primary phospho-Akt and phospho-ERK antibodies are added and plates are incubated overnight at 4° C. Plates are rinsed with Tween-20 wash buffer and secondary antibody (Goat anti-rabbit, Thermofisher) is added. After 2 hours, plates are rinsed in Tween-20 wash buffer, and then PBS. Plates are imaged on the Celigo (Nexcelom) and cellular fluorescence is quantitated. Full inhibition of phospho-Akt is achieved with 1 uM BEZ235 (Sellekchem), while full inhibition of phospho-ERK is achieved with 1 uM MEK Inhibitor II Calbiochem). EC50 values are calculated using Graphpad Prism.

[2] = test system: Ishikawa (K-Ras wild type cell line); experiment: Viability assay (CellTiterBlue, 72 hr) Ishikawa; settings: Homo sapiens, GI50, CellTiterBlue, Ishikawa K-Ras wild-type
Outline: (§3)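 1000 cells/well, 18 hr pre-incubation at 37 °C; compound added from DMSO stock, 0.5% DMSO final; 72 hr; CellTiterBlue 3 hr, fluorescence Ex550/Em590; GI50 normalized to DMSO = 100%, 100 uM tamoxifen = 0% viability.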

[3] = test system: HCC827 (K-Ras wild type cell line); experiment: Viability assay (CellTiterBlue, 72 hr) HCC827; settings: Homo sapiens, GI50, CellTiterBlue, HCC827 K-Ras wild-type
Outline: as §3

[4] = test system: A375 (K-Ras wild type cell line); experiment: Viability assay (CellTiterBlue, 72 hr) A375; settings: Homo sapiens, A-375, GI50, CellTiterBlue
Protocol: Viability assays were performed on exemplary compounds and Table 2 below lists exemplary results for selected compounds tested on K-Ras wild type cell lines (Ishikawa, U87-MG, HCC827, and A375) and various K-Ras mutant cell lines (Panc1-G12D; Panc10.05-G12D; HCT116-G31D). Results are expressed in μM and corresponding structures are shown in FIGS. 2A-2G and Examples 1-152, above.
Cells are counted and seeded at 1000 cells/36 ul medium/well into 384-well microplates. Cells are returned to 37° C. CO2 incubator for 18 hr. Drug is made as 200× in DMSO and diluted into medium to 10×. To each well is added 4 ul 10× drug, and plates are returned to the incubator. Final assay DMSO concentration is 0.5%. After 72 hr, 8 ul CellTiterBlue (Promega) is added to each well. After 3 hr, fluorescence (Ex550/Em590) is determined on the Victor Plate Reader (Perkin Elmer). Assay range is determined by DMSO control (100% viability) and 100 uM tamoxifen (0% viability). GI50 values are calculated using Graphpad Prism.

[5] = test system: U87-MG (K-Ras wild type cell line); experiment: Viability assay (CellTiterBlue, 72 hr) U87-MG; settings: Homo sapiens, U-87 MG, GI50, CellTiterBlue, U87-MG K-Ras wild-type
Outline: as §3

[6] = test system: phospho-Akt in Panc1 (G12D); experiment: In-Cell Western phospho-Akt, Panc1; settings: Homo sapiens, PANC-1, 1 h; Panc1, one hour treatment; read-out: In-Cell Western Panc1 (G12D) Akt (P)
Protocol: as §1, §2

Panc1-G12D = experiment: Viability assay (CellTiterBlue, 72 hr) Panc1; settings: Homo sapiens, PANC-1, GI50, CellTiterBlue, Panc1 K-Ras G12D, read-out: 72 hr Cell Viability Panc1 (G12D)
Outline: as §3

[7] = test system: phospho-Akt in A375 (Wild-type); experiment: In-Cell Western phospho-Akt, A375; settings: Homo sapiens, A-375, 1 h; A375, one hour treatment; read-out: In-Cell Western A375 (Wild-type) Akt (P)
Protocol: as §1, §2

[8] = test system: phospho-ERK in HCC827 (Wild-type); experiment: In-Cell Western phospho-ERK, HCC827; settings: Homo sapiens, 1 h; HCC827, one hour treatment; read-out: In-Cell Western HCC827 (Wild-type) Erk (P)
Protocol: as §1, §2

[9] = test system: phospho-ERK in Panc1 (G12D); experiment: In-Cell Western phospho-ERK, Panc1; settings: Homo sapiens, PANC-1, 1 h; Panc1, one hour treatment; read-out: In-Cell Western Panc1 (G12D) Erk (P)
Protocol: as §1, §2

Panc10.05-G12D = experiment: Viability assay (CellTiterBlue, 72 hr) Panc10.05; settings: Homo sapiens, Panc1005, GI50, CellTiterBlue, Panc10.05 K-Ras G12D, read-out: 72 hr Cell Viability Panc10.05 (G12D)
Outline: as §3

[10] = test system: phospho-ERK in Panc10.05 (G12D); experiment: In-Cell Western phospho-ERK, Panc10.05; settings: Homo sapiens, Panc1005, 1 h; Panc10.05, one hour treatment; read-out: In-Cell Western Panc10.05 (G12D) Erk (P)
Protocol: as §1, §2

[11] = test system: phospho-Akt in Panc10.05 (G12D); experiment: In-Cell Western phospho-Akt, Panc10.05; settings: Homo sapiens, Panc1005, 1 h; Panc10.05, one hour treatment; read-out: In-Cell Western Panc10.05 (G12D) Akt (P)
Protocol: as §1, §2

HCT116-G31D = experiment: Viability assay (CellTiterBlue, 72 hr) HCT116; settings: Homo sapiens, HCT-116, GI50, CellTiterBlue, HCT116 K-Ras G13D, read-out: 72 hr Cell Viability HCT116 (G13D)
Outline: as §3

K-Ras G12D = target: T1, K-Ras G12D (Homo sapiens, UniProt P01116, G12D); experiment: G-LISA Ras activation, 293H cells transfected with G12D mutant; settings: compound 1 hour
T1 construct: expressed in transfected cells; host or cells: 293H cells
T1 sequence (P01116 whole entry G12D): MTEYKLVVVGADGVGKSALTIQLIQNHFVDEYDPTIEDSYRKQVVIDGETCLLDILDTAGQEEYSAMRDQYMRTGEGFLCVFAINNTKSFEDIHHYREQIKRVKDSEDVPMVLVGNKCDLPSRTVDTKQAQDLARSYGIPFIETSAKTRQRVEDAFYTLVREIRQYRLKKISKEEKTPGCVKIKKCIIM
Outline: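 G-LISA Ras-GTP readout; 293H transfectants treated 1 h with 3.125-25 μM compound, EGF pulse (100 ng/ml, 2 min) for wild-type only.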

SMILES | EC50 [1] [µM] | IC50 [2] [µM] | IC50 [3] [µM] | IC50 [4] [µM] | IC50 [5] [µM] | EC50 [6] [µM] | IC50 (Panc1-G12D) [µM] | EC50 [7] [µM] | EC50 [8] [µM] | EC50 [9] [µM] | IC50 (Panc10.05-G12D) [µM] | EC50 [10] [µM] | EC50 [11] [µM] | IC50 (HCT116-G31D) [µM] | IC50 (K-Ras G12D) [µM]
Cc1nc(C(=O)Nc2nc(-c3ccc4c(c3)CCC(=O)N4)cs2)c(C)s1 [Compound 20, 2,5-dimethyl-N-(4-(2-oxo-1,2,3,4-tetrahydroquinolin-6-yl)thiazol-2-yl)thiazole-4-carboxamide] | > 25 | > 25 | > 25 | > 25 | > 25 | > 25 | > 25 | > 25 | > 25 | > 25 | > 25 | > 25 | > 25 | > 25 | 
Cc1nc(C2CCCCC2)oc1C(=O)Nc1nc(-c2ccc3c(c2)CCC(=O)N3Cc2cccnc2)cs1 [Compound 101, 2-cyclohexyl-4-methyl-N-(4-(2-oxo-1-(pyridin-3-ylmethyl)-1,2,3,4-tetrahydroquinolin-6-yl)thiazole-2-yl)oxazole-5-carboxamide] | > 25 | 2 | > 25 | 4 | > 25 | > 25 | 2 | > 25 | 14 | 18 | 4 | 3 | > 25 | 14 | 9.3
Cn1nccc1C(=O)Nc1nc(-c2ccc3c(c2)CCC(=O)N3)cs1 [Compound 51, 1-methyl-N-(4-(2-oxo-1,2,3,4-tetrahydroquinolin-6-yl)thiazol-2-yl)-1H-pyrazole-5-carboxamide] | > 25 | > 25 | > 25 | > 25 | > 25 | > 25 | > 25 | > 25 | > 25 | > 25 | > 25 | 25 |  | > 25 | 21.5
CCc1nc(C)c(C(=O)Nc2nc(-c3ccc4c(c3)CCC(=O)N4Cc3cncnc3)cs2)o1 [Compound 104, 2-ethyl-4-methyl-N-(4-(2-oxo-1-(pyrimidin-5-ylmethyl)-1,2,3,4-tetrahydroquinolin-6-yl)thiazol-2-yl)oxazole-5-carboxamide] | > 25 | > 25 | > 25 | 6 | > 25 | > 25 | 22 | > 25 | > 25 | > 25 | 17 | > 25 | > 25 | 5 | 
Cc1nc(C)c(C(=O)Nc2nc(-c3ccc4c(c3)CCC(=O)N4Cc3cccnc3C#N)cs2)o1 [Compound 94, N-(4-(1-((2-cyanopyridin-3-yl)methyl)-2-oxo-1,2,3,4-tetrahydroquinolin-6-yl)thiazol-2-yl)-2,4-dimethyloxazole-5-carboxamide] | > 25 | > 25 | > 25 | > 25 | > 25 | > 25 | > 25 | > 25 | > 25 | > 25 | > 25 | > 25 | > 25 | > 25 | 
Cn1nc(C(F)(F)F)cc1C(=O)Nc1nc(-c2ccc3c(c2)CCC(=O)N3)cs1 [Compound 50, 1-methyl-N-(4-(2-oxo-1,2,3,4-tetrahydroquinolin-6-yl)thiazol-2-yl)-3-(trifluoromethyl)-1H-pyrazole-5-carboxamide] | > 25 | > 25 | > 25 | > 25 | > 25 | > 25 | > 25 | > 25 | 13 | > 25 | > 25 | > 25 | > 25 | > 25 | 
Cc1nc(C)c(C(=O)Nc2nc(-c3ccc4c(c3)CCC(=O)N4CCCN(C)C)cs2)o1 [Compound 98, N-(4-(1-(3-(dimethylamino)propyl)-2-oxo-1,2,3,4-tetrahydroquinolin-6-yl)thiazol-2-yl)-2,4-dimethyloxazole-5-carboxamide] | > 25 | 11 | 5 | 9 | > 25 | > 25 | 13 | > 25 | > 25 | > 25 | > 25 | > 25 | > 25 | > 25 | 
Cn1nc(-c2ccccc2)cc1C(=O)Nc1nc(-c2ccc3c(c2)CCC(=O)N3)cs1 [Compound 48, 1-methyl-N-(4-(2-oxo-1,2,3,4-tetrahydroquinolin-6-yl)thiazol-2-yl)-3-phenyl-1H-pyrazole-5-carboxamide] | > 25 | > 25 | > 25 | > 25 | > 25 | > 25 | > 25 | > 25 | > 25 | > 25 | > 25 | > 25 | > 25 | > 25 | 
O=C1CCc2cc(-c3csc(NC(=O)c4ccnn4-c4ccccc4)n3)ccc2N1 [Compound 47, N-(4-(2-oxo-1,2,3,4-tetrahydroquinolin-6-yl)thiazol-2-yl)-1-phenyl-1H-pyrazole-5-carboxamide] | > 25 | > 25 | > 25 | > 25 | > 25 | > 25 | > 25 | > 25 | > 25 | > 25 | > 25 | > 25 | > 25 | > 25 | 
